Assay results from patent EP0334956A1, “HEMOLYSIS INHIBITOR AND MEDICAL RESIN COMPOSITION, MEDICAL IMPLEMENT, AND BLOOD-PRESERVING FLUID CONTAINING THE SAME” (KAO CORPORATION, priority 1986, dated 1988).
Where a name gives a salt, the structure may show the parent alone. Read-outs that look alike come from different tables or passages of the source.

Key:
[1] = tested on: human platelet rich plasma; assay: Platelet aggregation in platelet rich plasma (Aggrecoder); type: cell-based; details: 40 mM methanol solution added in 1/100, room temperature 2 hours, relative to blank; for activity at 400 µM: Homo sapiens, Platelet, 2 h, read-out: Ratio of platelet aggregation; for Ratio of platelet aggregation: 400 µM
Procedure: A 40 mM methanol solution of isopropyl isotridecyl maleate (Example 13), a 40 mM methanol solution of glycerine-l-butyl-3-isostearyl ether (Example 14), a 40 mM methanol solution of isopropyl isolaurate (Example 15), a 40 mM methanol solution of di-2-ethylhexyl phthalate (Control 19) and methanol containing no added compound (Control 20) were severally added to a human platelet rich plasma (count of platelets about 300,000/mm ) in a fixed amount of 1/100, left standing at room temperature for 2 hours, and tested for platelet aggregation by the use of an instrument (product of Kyoto Daiichikagaku K.K. marketed under "Aggrecoder").
The percentage of transmittance of light through the solution of platelet rich plasma containing a given sample to the maximum transmittance of light through the same solution of platelet rich plasma not containing the sample (blank) was reported as the ratio of aggregation of the sample. As aggregation inducers, 5 µM ADP (adenosine diphosphoric acid) and 5 ug/ml collagen were used.

CRC = assay: Hemolysis of stored CRC, reagent added directly to CRC; plasma hemoglobin by TMB method; type: cell-based, human; parameters: unit not given here; details: Table 2, direct addition, 4°C, 4 weeks
Procedure: Isopropyl isotridecyl maleate was added to CRC adjusted in advance to a hematocrit value of about 70% so as to be contained threrein in a final concentration indicated in Table 2 and stirred gently. The resultant liquid was placed in a stoppered polypropylene tube and left standing at rest at 4°C for 4 weeks, while subjecting to gentle stirring per a week. Thereafter, it was tested for plasma hemoglobin concentration by following the procedure of Example 1.
By following the procedrue of Example 3, isopropyl decyl maleate was added to CRC in the place of isopropyl isotridecyl maleate. The resultant liquid was left standing and, thereafter, tested for plasma hemoglobin concentration.
CRC samples were obtained by following the procedure of Example 3, except that di-2-ethylhexyl phthalate (Control 4) and diisopropyl maleate, a carboxylic ester compound deviating from the scope of this invention, (Control 5) were respectively used in place of isopropyl isotridecyl maleate. The resultant liquids were left standing and, thereafter, tested for plasma hemoglobin concentration.
Glycerine-l-butyl-isostearyl ether was added to CRC adjusted in advance to a hematocrit value of about 70% so as to be contained therein in a final concentration indicated in Table 4 and stirred gently. The resultant liquid was placed in a stoppered polypropylene tube and left standing at 4°C for 4 weeks, while subjecting to gentle stirring per a week. Thereafter, it was tested for plasma hemoglobin concentration by following the procedure of Example 1.
A CRC sample was prepared by following the procedure of Example 7, except that glycerine-1,3-dioctyl ether was used in place of glycerine-1-butyl 3-isostearyl ether. The resultant liquid was left standing and, thereafter, tested for plasma hemoglobin concentration.
Emulsions were prepared by following the procedure of Example 7, excepting di-2-ethylhexyl phthalate (Control 10) and glycerine monooctyl ether, an ether compound deviating from the scope of the present invention, (Control 11) were respectively used in the place of glycerine-l-butyl-3-isostearyl ether. CRC samples incorporating the emulsions were left standing and, thereafter, tested for plasma hemoglobin concetnration.
Isopropyl isolaurate was added to CRC adjusted in advance to a hematocrit value of about 70% so as to be contained therein in a final concentration indicated in Table 4 and stirred gently. The resultant liquid was place in a stoppered polypropylene tube and left standing at 4°C for 4 weeks, while subjecting to gentle stirring par a week. Thereafter, it was tested for plasma hemoglobin concentration by following the procedure of Example 1.
An emulsion was prepared by following the procedrue of Example 11, except that 2-ethylhexyl isostearate was used in place of isopropyl isolaurate. A CRC sample incorporating the resultant emulsion was left standing and, thereafter, tested for plasma hemoglobin concentration.
Emulsions were prepared by following the procedure of Example 11, except that di-2-ethylhexyl phthalate (Control 16) and ethyl-2-ethylhexanoate, a monocarboxylic ester compound deviating from the scope of the present invention, (Control 17) were respectively used in place of isopropyl isolaurate. CRC samples incorporating the resultant emulsions therein were left standing and, thereafter, tested for plasma hemoglobin concentraiton.

[2] = tested on: human concentrated red cells; assay: Hemolysis of stored CRC, reagent added as Tween 80/physiological saline emulsion; plasma hemoglobin by TMB method; type: cell-based; details: for Hemoglobin concentration in plasma: Table 1, emulsion, 4°C, 4 weeks; for hemolysis depressing capacity (in words): summary of Tables 1 through 6 (emulsion and direct addition)
Procedure: Isopropyl isotridecyl maleate was added to a 2000ug/ml polyoxyethylene monooleate (reagent-grade product of Wako Junyaku K.K. marketed under trademark designation of "Tween 80")/physiological saline mixed solution in such an amount to be contained therein in a final concentration of 4mM. A 0.2ml aliquot of the resultant emulsion was added to a human concentrated red cells (hereinafter referred to as "CRC") adjusted in advance to a hematocrit value of about 70% so as to be contained therein in a final concentration indicated in Table 1. The resulting liquid was placed in a stoppered polypropylene tube and left standing at rest at 4°C for 4 weeks. At the end of this standing, it was tested for plasma hemoglobin concentration by the TMB method (Clin. Chem., 23, 749-(1977)).
An emulsion was prepared by following the procedure of Example 1, except that isopropyl decyl maleate was used in place of isopropyl-isotridecyl maleate. A CRC sample incorporating the emulsion was left standing and thereafter tested for plasma hemoglobin concentration.
Emulsions were prepared by following the procedure of Excample 1, except that di-2-ethylhexyl phthalate (Control 1) and diisopropyl maleate, a carboxylic ester compound deviating from the scope of the present invention (Control 2) were respectively used in place of isopropyl isotridecyl maleate. CRC samples severally incorporating the emulsions were left standing and, thereafter, tested for plasma hemoglobin concentration.
Glycerine-l-butyl-3-isostearyl ether was added to a 2000 ug/ml polyoxyethylene monooleate (regent-grade product of Wako Junyaku K.K. marketed under trademark designation of "Tween 80")/ physiological saline mixed solution so as to be contained therein in a final concentration of 4 mM. A 0.2ml aliquot of the resultant emulsion was added to CRC adjusted in advance to a hematocrit value of about 70% so as to be contained therein in a final concentration indicated in Table 3. The resultant liquid was placed in a stoppered polypropylene tube and left standing at 4°C for 4 weeks. Thereafter, it was tested for plasma hemoglobin concentration by following the procedure of Example 1.
An emulsion was prepared by following the procedure of Example 5, except that glycerine-1,3-dioctyl ether was used in place of glycerine- l-butyl-3-isostearyl ether. A CRC sample incorporating the resultant emulsion was left standing and, thereafter, tested for plasma hemoglobin concentration. Controls 7 and 8
Emulsions were prepared by following the procedure of Example 5, except that di-2-ethylhexyl phthalate (Control 7) and glycerine monooctyl ether, an ether compound deviating from the scope of the present invention, (Control 8) were respectively used in place of glycerine-l-butyl-3-isostearyl ether. CRC samples incorporating the emulsions were left standing and, thereafter, tested for plasma hemoglobin concentration.
Isopropyl isolaurate was dispersed in a 2000 ug/ml poloxyethylene monooleate (reagent-grade product of Wako Junyaku K.K. marketed under trademark designation of "Tween 80")/physiological saline mixed solution so as to be contained therein in a concentration of 4 mM. A 0.2-ml aliquot of the resultant emulsion was added to CRC adjusted in advance to a hematocrit value of about 70% so as to be contained therein in a final concentration indicated in Table 5. The resultant liquid was placed in a stoppered polypropylene tube and left standing at 4°C for 4 weeks. Thereafter, it was tested for plasma hemoglobin concentration by following the procedure of Example 1.
An emulsion was prepared by following the procedure of Example 9, except that 2-ethylhexyl isostearate was used in place of isopropyl isolaurate. A CRC sample incorporating the resultant emulsion was left standing and, thereafter, tested for plasma hemoglobin concentration.

[3] = tested on: concentrated human red cells; assay: Hemolysis of CRC stored with blood preserving liquid (SAG solution/Tween 80 emulsion); type: cell-based; details: 4°C, 5 weeks
Procedure: An emulsion was produced by dissolving Tween 80 (reagent grade produced by Wako Junyaku K.K.) in a SAG solution (containing 140 mM of NaCl, 1.25 mM of adenine and 50 mM of glucose) so as to be contained therein in a concentration of 600 µg/ml adding 12 mM isopropyl isotridecyl maleate to the resultant solution, and stirring the resultant mixture for uniform dispersion. In a stoppered polypropylene tube, a mixture of 1.0 ml of the emulsion prepared as described above and 2.0 ml of a liquid of concentrated human red cells adjusted in advance to a hematocrit value of about 70% was left standing at 4°C for 5 weeks. The resultant liquid was tested for free hemoglobin concentration in plasma by following the procedure of Example 1.
An emulsion was prepared by dissolving Tween 80 (reagent grade product of Wako Junyaku K.K.) in a SAG liquid so as to be contained therein in a concentration of 600 µg/ml, adding 12 mM of glycerine-l-butyl-3-isostearyl ether and stirring the resultant mixture for 'uniform dispersion. In a stoppered polypropylene tube, a mixture of 1.0 ml of the emulsion prepared as described above and 2.0 ml of CRC adjusted in advance to a hematocrit value of about 70% was left stnading at 4°C for 5 weeks. At the end of this standing, the CRC liqud was tested for change of free hemoglobin concentration in plasma by following the procedure of Example 1.
An emulsion was prepared by dissolving Tween 80 (reagent grade product of Wako Junyaku K.K.) in a SAG liquid so as to be contained therein in a concentration of 600 ug/ml, adding 12 mM of isopropyl isolaurate to the resultant solution, and stirring the resultant mixture for uniform dispersion. In a stoppered polypropylene tube, a mixture of 1.0 ml of the emulsion prepared as described above and 2.0 ml of CRC adjusted in advance to a hematocrit value of about 70% and then left standing at 4°C for 5 weeks. At the end of the satnding, the liquid was tested for free hemoglobin concentraiton in plasma by following the procedure of Example 1. The results are shown in Talbe 24.

[4] = aggregation inducer 5 µg/ml collagen

Molecule | Hemoglobin concentration in plasma (CRC; final concentration 0.4 mM) | Hemoglobin concentration in plasma (CRC; final concentration 4.0 mM) | Hemoglobin concentration in plasma ([2]; final concentration 0.4 mM) [Mg/ml] | Hemoglobin concentration in plasma ([2]; final concentration 4.0 mM) [Mg/ml] | hemolysis depressing capacity (in words) [2] | also measured
CC(C)CCCCCCCCCCOC(=O)/C=C\C(=O)OC(C)C [Isopropyl isotridecyl maleate] | 90 | 95 | 35 | 33 | – | activity at 400 µM ([1]; aggregation inducer 5 µM ADP): 94.3%; activity at 400 µM [1, 4]: 94.5%
CCCCC(CC)C(=O)OCC (stereo not shown) [Ethyl-2-ethylhexanoate, reference compound] | – | – | – | – | possessed virtually no ability to prevent hemolysis or conversely caused hemolysis | –
CC(C)OC(=O)/C=C\C(=O)OC(C)C [Diisopropyl maleate, reference compound] | 135 | 160 | 124 | 138 | possessed virtually no ability to prevent hemolysis or conversely caused hemolysis | –
Glycerine-1-butyl-3-isostearyl ether | – | – | – | – | – | Ratio of platelet aggregation ([1]; aggregation inducer 5 µM ADP): 101.0%; Ratio of platelet aggregation [1, 4]: 103.1%; Concentration of Free Hemoglobin in Plasma ([3]; Table 23, final concentration of the additive in CRC 0.4 mM): 71 mg/dL; Concentration of Free Hemoglobin in Plasma ([3]; Table 23, final concentration of the additive in CRC 4.0 mM): 102 mg/dL
CC(C)CCCCCCCCC(=O)OC(C)C [Isopropyl isolaurate] | – | – | – | – | – | Ratio of platelet aggregation ([1]; aggregation inducer 5 µM ADP): 99.3%; Ratio of platelet aggregation [1, 4]: 101.6%; Concentration of Free Hemoglobin in Plasma ([3]; Table 24, final concentration of the additive in CRC 0.4 mM): 86 mg/dL; Concentration of Free Hemoglobin in Plasma ([3]; Table 24, final concentration of the additive in CRC 4.0 mM): 230 mg/dL
CCCCCCCCOCC(O)CO (stereo not shown) [Glycerine monooctyl ether, reference compound] | – | – | – | – | possessed virtually no ability to prevent hemolysis or conversely caused hemolysis | –
CCCCCCCCCCOC(=O)/C=C\C(=O)OC(C)C [Isopropyl decyl maleate] | 95 | 99 | 41 | 43 | – | –
